# In patent US4080449A, “1,2,4,5-Tetrahydro-3H-2-benzazepin-3-ones” (U C B, Societe Anonyme, priority 1976, dated 1978):
# Values joined by “and” are separate entries in the source; they are usually repeats but may differ in a detail not shown here. Identical values can stand only once.
# Columns and labels:
# [1] = pharmacological properties of the compounds according to the present invention (Table III footnote, test not specified); type: in vivo
# [2] = tested on: lethality induced by a curarizing agent, oxydipentonium chloride (Brevatonal); test: Brevatonal test (protection against lethality induced by oxydipentonium chloride, hypoxia); type: in vivo; details: mice, i.p.
# Protocol: At the doses used, this curarizing agent brings about a respiratory depression which, in turn, brings about a hypoxi-hypercapnic syndrome. A compound capable of protecting the brain during this short period of hypoxia ensures survival. The compounds are administered to groups of 10 mice one hour before the injection of the curarizing agent; concurrently herewith, a control group of 10 mice is given a physiological salt solution prior to the curarizing agent. For each compound, the proportion of surviving mice is compared with the proportion of surviving control mice by the "Fisher exact probability test". This test, called the Brevatonal test, has also been developed in our laboratories.
# Intraperitoneal administration (i.p.) of compounds according to the present invention, namely, 2-methyl-1,2,4,5-tetrahydro-3H-2-benzazepin-3-one (compound A), 2,4-dimethyl-1,2,4,5-tetrahydro-3H-2-benzazepin-3-one (compound G), 2-isobutyl-4-methyl-1,2,4,5-tetrahydro-3H-2-benzazepin-3-one(compound H), 7-chloro-2-methyl-1,2,4,5-tetrahydro-3H-2-benzazepin-3-one (compound J) 8-chloro-2-methyl-1,2,4,5-tetrahydro-3H-2-benzazepin-3-one (compound K) and 8-methyl-2-pentyl-1,2,4,5-tetrahydro-3H-2-benzazepin-3-one (compound L), produces under these conditions the effects set out in the following Table II.
# [3] = tested on: withdrawal reaction of a rat's paw; test: active avoidance test (memory retention, paw pressure withdrawal); type: in vivo; details: for Stimulus initiating the avoidance reaction 24 hours after the first stimulation: s.c.; for minimal effective dose: sc, minimum dose which lowers the stimulus to below 110 g
# Description: The principle of the active avoidance test, which has been developed in our laboratories and used for this purpose, may be described as follows: the withdrawal reaction of a rat's paw subjected to an increasing and measured pressure is observed. The pressure at which the withdrawal reaction is produced is called the reaction threshold. The latter is expressed in grams and thus corresponds to the minimum pressure which, when applied to the paw of the animals, causes withdrawal. It is read off directly from a scale of the apparatus used. […] Use is made of a minimum of 20 rats per test (10 treated rats and 10 control rats), the active dose being defined as the minimum dose which lowers the stimulus to below 110 g.
# spinal fixation time [4] = test: spinal fixation test (elementary model of memory) after unilateral cerebellar lesion; type: in vivo; details: rat, i.p., 0.1 mmole/kg (A 17.5, B 22, C 23.7 mg/kg); spinal section 35 minutes after onset of asymmetry
# Description: Action on the mnemic processes is shown particularly by the reduction in the time for spinal fixation, a test which has been described in the literature (see C. Giurgea and F. Mouravieff-Lesuisse, Arch. Int. Pharmacodyn, 191/2, (1971), 279) as an elementary model of memory which is endowed with a pharmacological reactivity in good correlation with clinical physiopathology. In the rat, after unilateral lesion of the cerebellum, there is a postural asymmetry of the hind paws. This asymmetry may persist, even after spinal section, if the animal has been in this situation for a sufficiently long time. This time, which is called the spinal fixation time, is 45 minutes under the experimental conditions. On the other hand, if spinal section is performed before the expiry of this period, for example 35 minutes after the onset of the asymmetry, the latter disappears. […] Conversely, any product which allows the rats to retain the asymmetry (thus achieving spinal fixation) when the spinal section is carried out after 35 minutes, is regarded as being active.
# Under these conditions, administration of a compound according to the present invention, for example 2-methyl-1,2,4,5-tetrahydro-3H-2-benzazepin-3-one (compound A), 2-carbamoylmethyl-1,2,4,5-tetrahydro-3H-2-benzazepin-3-one (compound B) and 5-phenyl-1,2,4,5-tetrahydro-3H-2-benzazepin-3-one (compound C) produces the following effects: […]
# [5] = LD50 determined intraperitoneally in the rat (Spearman-Karber); details: in vivo, ip, intraperitoneal
# Protocol: The LD50 doses were determined intraperitoneally in the rat and calculated by using the method of Spearman-Karber (D. J. Finney, Statistical Methods in Biological Assay, pub. Griffin & Co., London, 1952, p. 524).
# spinal fixation time [6] = details: rat, 30 mg/kg (0.2 millimole/kg), same conditions; C. Giurgea and F. Mouravieff-Lesuisse, loc.cit.; cited from earlier work
# [7] = 0.175 mg/kg, control (0 mg/kg) A 164, F 154
# [8] = 2 mg/kg (0.01 mmole/kg), control G 1/10, H 2/10
smiles,measurement,setting,value
"O=C1CCc2ccccc2CN1 [1,2,4,5-tetrahydro-3H-2-benzazepin-3-one]",pharmacological properties of the compounds according to the present invention,[1],does not have th
"CN1Cc2ccccc2CCC1=O [A, 2-methyl-1,2,4,5-tetrahydro-3H-2-benzazepin-3-one]",Fisher exact probability,[2]; 55 mg/kg (0.32 mmole/kg),< 0.005
same,"Proportion of survivors, treated animals","[2]; 55 mg/kg (0.32 mmole/kg), control 0/10",7/10
same,Stimulus initiating the avoidance reaction 24 hours after the first stimulation,"[3]; 0.09 mg/kg, control (0 mg/kg) 164",146 g
same,Stimulus initiating the avoidance reaction 24 hours after the first stimulation,[3]; [7],106 g
same,minimal effective dose,[3],0.175 mg/kg and 1 µmol/kg
same,spinal fixation after 35 minutes (animals with fixation),spinal fixation time [4],three animals out of five
same,LD50,[5],760 mg/kg
"NC(=O)CN1Cc2ccccc2CCC1=O [B, 2-carbamoylmethyl-1,2,4,5-tetrahydro-3H-2-benzazepin-3-one]",spinal fixation after 35 minutes (animals with fixation),spinal fixation time [4],two animals out of four
"O=C1CC(c2ccccc2)c2ccccc2CN1 (stereo not shown) [C, 5-phenyl-1,2,4,5-tetrahydro-3H-2-benzazepin-3-one]",spinal fixation after 35 minutes (animals with fixation),spinal fixation time [4],four animals out of five
"COc1ccc2c(c1)CCC(=O)N(C)C2 [D, 7-methoxy-2-methyl-1,2,4,5-tetrahydro-3H-2-benzazepin-3-one]",Stimulus initiating the avoidance reaction 24 hours after the first stimulation,"[3]; 0.205 mg/kg, control (0 mg/kg) 165",118 g
same,Stimulus initiating the avoidance reaction 24 hours after the first stimulation,"[3]; 1 mg/kg, control (0 mg/kg) 165",90 g
same,minimal effective dose,[3],1 mg/kg and 5 µmol/kg
"CCCCCN1Cc2ccccc2CC(C)C1=O (stereo not shown) [E, 4-methyl-2-pentyl-1,2,4,5-tetrahydro-3H-2-benzazepin-3-one]",Stimulus initiating the avoidance reaction 24 hours after the first stimulation,"[3]; 0.24 mg/kg, control (0 mg/kg) 166",122 g
same,Stimulus initiating the avoidance reaction 24 hours after the first stimulation,"[3]; 0.49 mg/kg, control (0 mg/kg) 166",89 g
same,minimal effective dose,[3],0.49 mg/kg and 2 µmol/kg
"Cc1ccc2c(c1)CNC(=O)CC2 [F, 8-methyl-1,2,4,5-tetrahydro-3H-2-benzazepin-3-one]",Stimulus initiating the avoidance reaction 24 hours after the first stimulation,[3]; [7],121 g
same,Stimulus initiating the avoidance reaction 24 hours after the first stimulation,"[3]; 0.35 mg/kg, control (0 mg/kg) 154",111 g
same,Stimulus initiating the avoidance reaction 24 hours after the first stimulation,"[3]; 0.87 mg/kg, control (0 mg/kg) 154",101 g
same,minimal effective dose,[3],0.87 mg/kg and 5 µmol/kg
"CC1Cc2ccccc2CN(C)C1=O (stereo not shown) [G, 2,4-dimethyl-1,2,4,5-tetrahydro-3H-2-benzazepin-3-one]",Fisher exact probability,[2]; 2 mg/kg (0.01 mmole/kg),< 0.05
same,"Proportion of survivors, treated animals",[2]; [8],6/10
"CC(C)CN1Cc2ccccc2CC(C)C1=O (stereo not shown) [H, 2-isobutyl-4-methyl-1,2,4,5-tetrahydro-3H-2-benzazepin-3-one]",Fisher exact probability,[2]; 2 mg/kg (0.01 mmole/kg),< 0.005
same,"Proportion of survivors, treated animals",[2]; [8],9/10
same,Fisher exact probability,[2]; 7 mg/kg (0.032 mmole/kg),< 0.05
same,"Proportion of survivors, treated animals","[2]; 7 mg/kg (0.032 mmole/kg), control 2/10",7/10
same,Fisher exact probability,[2]; 23 mg/kg (0.1 mmole/kg),< 0.001
same,"Proportion of survivors, treated animals","[2]; 23 mg/kg (0.1 mmole/kg), control 1/10",9/10
"CN1Cc2ccc(Cl)cc2CCC1=O [J, 7-chloro-2-methyl-1,2,4,5-tetrahydro-3H-2-benzazepin-3-one]",Fisher exact probability,[2]; 21 mg/kg (0.1 mmole/kg),< 0.01
same,"Proportion of survivors, treated animals","[2]; 21 mg/kg (0.1 mmole/kg), control 1/10",7/10
same,Fisher exact probability,[2]; 66 mg/kg (0.32 mmole/kg),< 0.005
same,"Proportion of survivors, treated animals","[2]; 66 mg/kg (0.32 mmole/kg), control 1/10",8/10
"CN1Cc2cc(Cl)ccc2CCC1=O [K, 8-chloro-2-methyl-1,2,4,5-tetrahydro-3H-2-benzazepin-3-one]",Fisher exact probability,[2]; 21 mg/kg (0.12 mmole/kg as printed),< 0.05
same,"Proportion of survivors, treated animals","[2]; 21 mg/kg (0.12 mmole/kg as printed), control 1/10",6/10
same,Fisher exact probability,[2]; 66 mg/kg (0.37 mmole/kg as printed),< 0.05
same,"Proportion of survivors, treated animals","[2]; 66 mg/kg (0.37 mmole/kg as printed), control 1/10",6/10
"CCCCCN1Cc2cc(C)ccc2CCC1=O [L, 8-methyl-2-pentyl-1,2,4,5-tetrahydro-3H-2-benzazepin-3-one]",Fisher exact probability,[2]; 78 mg/kg (0.32 mmole/kg),< 0.05
same,"Proportion of survivors, treated animals","[2]; 78 mg/kg (0.32 mmole/kg), control 0/5",6/10
"NC(=O)CN1CCCC1=O [piracetam, reference compound]",Fisher exact probability,[2]; 45 mg/kg (0.32 mmole/kg),not significant
same,"Proportion of survivors, treated animals","[2]; 45 mg/kg (0.32 mmole/kg), control 0/10",1/10
same,Fisher exact probability,[2]; 142 mg/kg (1 mmole/kg),not significant
same,"Proportion of survivors, treated animals","[2]; 142 mg/kg (1 mmole/kg), control 2/10",4/10
same,Fisher exact probability,[2]; 454 mg/kg (3.2 mmole/kg),< 0.005
same,"Proportion of survivors, treated animals","[2]; 454 mg/kg (3.2 mmole/kg), control 1/10",8/10
same,Stimulus initiating the avoidance reaction 24 hours after the first stimulation,"[3]; 1.5 mg/kg, control (0 mg/kg) 153",120 g
same,Stimulus initiating the avoidance reaction 24 hours after the first stimulation,"[3]; 3.5 mg/kg, control (0 mg/kg) 153",90 g
same,minimal effective dose,[3],3.5 mg/kg and 25 µmol/kg
same,retention in active avoidance test,"[3]; tested 24 hours later, versus control animals, dose not given in sentence",significant degree of retention
same,spinal fixation (animals with fixation),spinal fixation time [6],four animals out of nine
